Non-standard residues stand in square brackets, D forms with d. Residues, ends and D or L forms follow the SMILES beside them.
Assays:
catagenic papilla cells = test: Inhibition of IL-1α-induced production of PGE2 by catagenic papilla cells cultured in vitro; type: cell-based; settings: 10 μM tripeptide; for PGE2: IL-1α 10 ng/ml, control 9.2, IL-1α alone 100.2; for % inhibition: PGE2 induced by IL-1α 10 ng/ml
Description: Measurement of the inhibition of the production of PGE2 by catagenic papilla cells cultured in vitro.
The cells (1,000 per well), at the 24th passage, were incubated in 199 medium marketed by Gibco in the presence of 1% foetal calf serum and of antibiotics. 20 hours later, the medium was replaced by an identical medium, but containing the tripeptides to be evaluated at a final concentration of 10 μM. 5 hours later, interleukin-1α was added at a final concentration of 10 ng/ml. 20 hours later, the PGE2 levels produced by the cultured papilla cells were evaluated by means of a Biotrack kit marketed by Amersham, the manufacturer's instructions being followed. This method thus made it possible to evaluate the inhibiting effect of these tripeptides on the production of PGE2 induced by a proinflammatory cytokine: interleukin-1α.

[1] = test system: type-1 IL-1 receptor (IL-1R1); test: Expression of type-1 IL-1 receptor mRNA in plucked hairs (RT-PCR, relative to GAPDH), 3 h 30 min; type: cell-based, human; settings: treated batch vs control batch (100%), dose not given
Description: (§1) Inhibition of the expression of the messenger RNAs of proinflammatory and inflammatory cytokines in response to the Ac-LPV-NH2* tripeptide.
(§2) Ten plucked hairs were removed from the region of the vertex of a volunteer suffering from inflammatory alopecia. These were placed in a Williams' survival medium E (marketed by Gibco BRL) containing penicillin G (100 units/ml), streptomycin S (100 μg/ml) and amphotericin (250 ng/ml), in the presence (treated batch) or in the absence (control) of the Ac-LPV-NH2* tripeptide, synthesized to order by Neosystem S.A., (Strasbourg).
(§3) After incubating for 3 h, 30 min, the messenger RNAs corresponding to these two batches of hair were purified from a “quick prep mRNA purification kit” marketed by Pharmacia. DNAs complementary to these mRNAs were then prepared by means of a reverse transcription kit marketed by Pharmacia, the manufacturer's instructions being followed, and then subjected to a polymerization chain reaction (PCR) stage by using primers specific for the mRNAs of glyceraldehyde-3-phosphate dehydrogenase (GAPDH), of IL-1α, of the type-1 IL-1 receptor and of the type-2 IL-1 receptor. The amounts of amplified DNA were then evaluated by electrophoresis on 1.5% agarose gel in the presence of ethidium bromide. […]

IL-1α [2] = test: Expression of IL-1α mRNA in plucked hairs (RT-PCR, relative to GAPDH), 3 h 30 min; type: cell-based, human; settings: treated batch vs control batch (100%), dose not given
Description: as §1, §2, §3

interleukin-1α = test: Production of interleukin-1α in the supernatant of plucked hairs (ELISA); type: cell-based, human; settings: 20 hours; for % of inhibition: IL-1α in supernatant; for IL-1α: plucked hairs from inflammatory alopecia, control 21.8 pg/ml
Description: Dose-response activity of the Ac-LPV-NH2* tripeptide with respect to the production of interleukin-1α in the supernatant of plucked hairs emanating from a patient afflicted with inflammatory alopecia.
Plucked hairs were removed from the region of the vertex of a volunteer suffering from inflammatory alopecia. They were placed in a Williams' survival medium E (marketed by Gibco BRL) containing penicillin G (100 units/ml), streptomycin S (100 μg/ml) and amphotericin (250 ng/ml), in the presence or in the absence (control) of the Ac-LPV-NH2* tripeptide, synthesized to order by Neosystem S.A. (Strasbourg), at the doses indicated. After incubating for 20 hours, the culture supernatants were collected in a tube and then centrifuged for 5 minutes at 14,000 revolutions/minute (Eppendorff centrifuge, model 5415C). The supernatants were then collected in a clean tube and placed at 4° C.
The interleukin-1α concentration was then evaluated with respect to 100 μl of supernatant by means of a Biotrak ELISA kit marketed by Amersham, according to the manufacturer's instructions.

IL-1α [3] = test: Expression of the mRNAs of IL-1α from the IL-1α/GAPDH ratio, plucked hairs of two donors, 20 hours; type: cell-based, human
Description: Inhibiting effect of Ac-LPV-NH2* on the expression of the mRNAs of IL-1α, calculated from the IL-1α/GAPDH ratio.
5 hairs were plucked from two different donors and were then incubated for 20 hours at 37° C. (5% CO2) in Williams' medium E supplemented with antibiotics and with glutamine and in the presence of Ac-LPV-NH2* at the concentrations indicated. A control was carried out in which there was no peptide added.

| % of expression IL-1R1 [1] | SMILES | PGE2 (catagenic papilla cells) | % inhibition (catagenic papilla cells) | % of expression IL-1α (IL-1α [2]) | % of inhibition (interleukin-1α; dose 1 μM) | IL-1α (interleukin-1α; dose 1 μM) | % of inhibition (interleukin-1α; dose 10 μM) | IL-1α (interleukin-1α; dose 10 μM) | expression of the mRNAs of IL-1α, % of the control (IL-1α [3]; donor A, 1 μM) | expression of the mRNAs of IL-1α, % of the control (IL-1α [3]; donor A, 10 μM) | expression of the mRNAs of IL-1α, % of the control (IL-1α [3]; donor B, 0.1 μM) | expression of the mRNAs of IL-1α, % of the control (IL-1α [3]; donor B, 1 μM) | expression of the mRNAs of IL-1α, % of the control (IL-1α [3]; donor B, 10 μM) |
| --- | --- | --- | --- | --- | --- | --- | --- | --- | --- | --- | --- | --- | --- |
|  | CC(=O)N[C@@H](CCCCN)C(=O)N1CCC[C@@H]1C(=O)N[C@H](C(N)=O)C(C)C [Ac-L-(D)P-V-NH2***, Acetyl-(L) Lys-(D) Pro-(L) Val-NH2] (Ac-Lys-[dP]-Val-NH2) | 24.6 pg/mL | 75% |  |  |  |  |  |  |  |  |  |  |
|  | CC(=O)N[C@@H](CCCCN)C(=O)N1CCC[C@H]1C(=O)N[C@H](C(N)=O)C(C)C [Acetyl-(L) Lys-(L) Pro-(L) Val-NH2, reference compound] (Ac-Lys-Pro-Val-NH2) | 10.0 pg/mL | 90% |  |  |  |  |  |  |  |  |  |  |
| 26% | CC(=O)N[C@H](CCCCN)C(=O)N1CCC[C@@H]1C(=O)N[C@@H](C(N)=O)C(C)C [Acetyl-(D) Lys-(D) Pro-(D) Val-NH2] (Ac-[dK]-[dP]-[dV]-NH2) | 28.0 pg/mL | 78% | 0% | 49% | 11.1 pg/mL | 72% | 6.1 pg/mL | 51% | 28% | 53% | 62% | 28.7% |
